From patent US20170334899A1, “AMINO-SUBSTITUTED ISOTHIAZOLES” (Bayer Pharma Aktiengesellschaft, priority 2014, published 2017)
Structures can show the parent of a compound that is named as a salt.

What was measured:
[1] = test system: human cervical tumor cell line HeLa (ATCC CCL-2); experiment: SAC-Formation - Paclitaxel-Induced Assay; type: cell-based; settings: 24 h, HeLa cells, paclitaxel 0.05 μM, test range 0.005 μM-20 μM, read-out: IC50 [mol/l] SAC-Formation - Paclitaxel-Induced Assay
Procedure, shortened: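 Read-out is high-content imaging of anti-phospho-H3 Ser10 (mitosis) and Hoechst 33342 (DNA, cell number), with decreased mitotic fraction marking checkpoint breakthrough. Compounds (0.005–20 μM) and 0.05 μM paclitaxel co-added to overnight-plated HeLa for 24 h at 37° C; four-parameter Hill fit.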

[2] = test system: human cervical tumor cell line HeLa (ATCC CCL-2); experiment: SAC-Formation - Nocodazole-Induced Assay; type: cell-based; settings: 24 h, HeLa cells, nocodazole 0.1 μg/ml together with test compound, decrease of mitotic cells (phospho-histone H3 Ser10)
Procedure, shortened: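 Loss of phospho-histone H3 Ser10-positive cells, counted against Hoechst-stained nuclei by high-content imaging, marked mitotic breakthrough. Compounds (0.005–20 μM, 0.5% DMSO) were co-dosed with 0.1 μg/ml nocodazole onto HeLa cells for 24 h at 37 °C. Curves were fitted with a four-parameter Hill equation.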

SMILES | IC50 ([1]; Homo sapiens, HeLa) [nM] | IC50 ([2]; Homo sapiens, HeLa) [nM] | IC50 [1] [nM] | IC50 [2] [nM]
Cc1nsc(Nc2cnc3ccccc3n2)c1C(=O)Nc1ccc(S(C)(=O)=O)cc1 [Example 115, 3-Methyl-N-[4-(methylsulfonyl)phenyl]-5-(quinoxalin-2-ylamino)-1,2-thiazole-4-carboxamide] | 3700 | 1200 | – | –
Cc1nsc(Nc2cnc(C(F)(F)F)cn2)c1C(=O)Nc1ccc(OC2CCN(CCF)CC2)nc1 [Example 7, N-(6-{[1-(2-Fluoroethyl)piperidin-4-yl]oxy}pyridin-3-yl)-3-methyl-5-{[5-(trifluoromethyl)pyrazin-2-yl]amino}-1,2-thiazole-4-carboxamide] | 770 | 600 | – | –
Cc1nsc(Nc2cnc3ccccc3n2)c1C(=O)Nc1cccc(C(=O)N[C@H](C(=O)O)[C@@H](C)OC(C)(C)C)c1 [Example 104, O-tert-Butyl-N-[3-({[3-methyl-5-(quinoxalin-2-ylamino)-1,2-thiazol-4-yl]-carbonyl}amino)benzoyl]threonine] | 3200 | 1800 | – | –
CCNS(=O)(=O)c1ccc(NC(=O)c2c(C)nsc2Nc2cnc3ccccc3n2)cc1 [Example 116, N-[4-(Ethylsulfamoyl)phenyl]-3-methyl-5-(quinoxalin-2-ylamino)-1,2-thiazole-4-carboxamide] | 1500 | 810 | – | –
Cc1nsc(Nc2cnc(C(F)(F)F)cn2)c1C(=O)Nc1ccc(OC2CCN(CCC(F)(F)F)CC2)nc1 [Example 426, 3-Methyl-5-{[5-(trifluoromethyl)pyrazin-2-yl]amino}-N-(6-{[1-(3,3,3-trifluoro-propyl)piperidin-4-yl]oxy}pyridin-3-yl)-1,2-thiazole-4-carboxamide, Salt with Hydrochloric Acid] | – | – | 32 | 30

Further molecules by falling IC50 ([1]; Homo sapiens, HeLa), results first:

IC50 ([1]; Homo sapiens, HeLa) [nM] | IC50 ([2]; Homo sapiens, HeLa) [nM] | IC50 [1] [nM] | IC50 [2] [nM] | SMILES
310 | 210 | – | – | CCCCN1CC[C@H](Oc2ccc(NC(=O)c3c(C)nsc3Nc3cnc(C(F)(F)F)cn3)cn2)[C@H](F)C1 [Example 148, N-(6-{[(3R,4S)-1-butyl-3-fluoropiperidin-4-yl]oxy}pyridin-3-yl)-3-methyl-5-{[5-(trifluoromethyl)pyrazin-2-yl]amino}-1,2-thiazole-4-carboxamide]
150 | 1000 | – | – | CC(=O)N1CCC(Oc2ccc(NC(=O)c3c(C)nsc3Nc3cnc(C(F)(F)F)cn3)cn2)CC1 [Example 11, N-{6-[(1-Acetylpiperidin-4-yl)oxy]pyridin-3-yl}-3-methyl-5-{[5-(trifluoromethyl)-pyrazin-2-yl]amino}-1,2-thiazole-4-carboxamide]
32 | 34 | – | – | Cc1nsc(Nc2cnc(C(F)(F)F)cn2)c1C(=O)Nc1ccc(O[C@@H]2CCN(CC(F)F)C[C@@H]2F)nc1 [Example 137, N-(6-{[(3S,4R)-1-(2,2-difluoroethyl)-3-fluoropiperidin-4-yl]oxy}pyridin-3-yl)-3-methyl-5-{[5-(trifluoromethyl)pyrazin-2-yl]amino}-1,2-thiazole-4-carboxamide]
30 | 39 | – | – | Cc1nsc(Nc2cnc(C(F)(F)F)cn2)c1C(=O)Nc1ccc(OCC2CCN(CC(F)F)C2)nc1 (stereo not drawn) [Example 122, N-(6-{[1-(2,2-difluoroethyl)pyrrolidin-3-yl]methoxy}pyridin-3-yl)-3-methyl-5-{[5-(trifluoromethyl)pyrazin-2-yl]amino}-1,2-thiazole-4-carboxamide]
